Test results taken from PMC11909975, “Spectroscopic, docking, antiproliferative, and anticancer activity of novel metal derivatives of phenylacetohydrazide Schiff base on different human cancer cell lines” (BMC Chemistry, 2025).
Values after ≈ are worked out from the molar mass of the structure shown.

Key:
Type in all cases: cell-based
[1] = tested on: A549 (Human Lung cancer cell line); assay: MTT cytotoxicity assay on lung cancer cells; conditions: for SI (selectivity index), A549: IC50 normal cells (HSF) / IC50 A549
Experimental: (§1) Cells (HeLa, cervical cancer cells; MDA-MB-231, breast cancer cells; A375, skin cancer cells; A549, lung cancer cells; and HSF, normal skin fibroblasts cells) were supplied from Nawah Scientific (Cairo, Egypt). The cells were grown in DMEM medium supplemented with 10% fetal bovine serum (Gibco, Life Technologies Inc., UK) with 1% penicillin/streptomycin solution (Gibco). Cells were maintained at 37°C with 5% CO2.
(§2) MTT in vitro cytotoxic assay assesses the metabolic activity of viable cells through the reduction of the water-soluble yellow dye by mitochondrial succinate dehydrogenase into the insoluble purple formazan. In brief, cyanochalcone derivatives were dissolved in 100% dimethyl sulphoxide (DMSO, Serva, Heidelberg, Germany) and incubated with cells at the desired concentrations (0, 6.25, 12.5, 25, 50, 100, and 200 μM) for 48 h with the corresponding vehicle as control. 5-Florouracil (5FU) was used as a positive control. Following incubation, old media were discarded and MTT solution (50 μl, 0.5 mg/ml) was added. After 4 h of incubation, the insoluble formed formazan was dissolved in DMSO (100 μl) with a shaking plate for 15 min in a dark place. The absorbance readings were taken at 570 nm by an ELISA reader. Relative cell viability was calculated as a percentage of control untreated cells. The assay was done in four replicates. The dose–response curve was plotted using GraphPad Prism 8, and the values of IC50 (half-maximal inhibitory concentration) were determined using non-linear regression analysis. Finally, the selectivity index was calculated by dividing the IC50 for normal cells by the IC50 of cancer cells.
(§3) To evaluate the potential usefulness of the Schiff base ligand (H2L) and the reported complexes (Fe, Zn, Cd, Pt) as antitumor agents, five human cell lines (normal Cells; HSF, human colorectal cancer cell line; HCT119, liver carcinoma cell line; HEPG2, human triple-negative breast cancer; MDA, human lung cancer cell line; A549) were treated by the compounds and compared with cis-platin activity as a standard. The IC50 values (concentration that produces 50% inhibition of cell growth) and selectivity index of the H2L ligand, the metal complexes, and cis-platin were tabulated in Table 4.

[2] = tested on: HSF normal human skin fibroblast; assay: MTT cytotoxicity assay on normal skin fibroblasts; conditions: for SI (selectivity index), HSF: IC50 normal cells (HSF) / IC50 HSF
Experimental: as §1, §2, §3

[3] = tested on: HCT119 (Human Colorectal cancer cell line); assay: MTT cytotoxicity assay on colorectal cancer cells; conditions: for SI (selectivity index), HCT119: IC50 normal cells (HSF) / IC50 HCT119
Experimental: as §1, §2, §3

[4] = tested on: HepG2 (Human Liver cancer cell line); assay: MTT cytotoxicity assay on liver cancer cells; conditions: for SI (selectivity index), HEPG2: IC50 normal cells (HSF) / IC50 HEPG2
Experimental: as §1, §2, §3

[5] = tested on: MDA (Human Breast cancer cell line); assay: MTT cytotoxicity assay on triple-negative breast cancer cells; conditions: for SI (selectivity index), MDA: IC50 normal cells (HSF) / IC50 MDA
Experimental: as §1, §2, §3

[6] = A549 lung cancer cells, MTT, 48 h
[7] = HSF normal skin fibroblasts, MTT, 48 h
[8] = HCT119 colorectal cancer cells (HCT116 in abstract), MTT, 48 h
[9] = HEPG2 liver carcinoma cells, MTT, 48 h
[10] = MDA triple-negative breast cancer cells, MTT, 48 h

## CC(=O)[O-].CC(=O)[O-].[Cd+2].[Cd+2].[O-]c1ccc2ccccc2c1C=NN=C(O)Cc1ccccc1.[O-]c1ccc2ccccc2c1C=NN=C(O)Cc1ccccc1 [Cd complex]
[1]; [6]
  IC50 (A549): 56.23 µg/mL
[1]
  SI (selectivity index), A549: 0.09
[2]; [7]
  IC50 (HSF): 5.24 µg/mL
[2]
  SI (selectivity index), HSF: 1.00
[3]; [8]
  IC50 (HCT119): 0.329 µg/mL
[3]
  SI (selectivity index), HCT119: 15.93
[4]; [9]
  IC50 (HEPG2): 4.16 µg/mL
[4]
  SI (selectivity index), HEPG2: 1.26
[5]
  SI (selectivity index), MDA: 0.20
[5]; [10]
  IC50 (MDA): 25.7 µg/mL

## N.N.[Cl][Pt][Cl] [Cisplatin, reference compound]
[1]; [6]
  IC50 (A549): 2.73 µg/mL
[1]
  SI (selectivity index), A549: 4.05
[2]; [7]
  IC50 (HSF): 11.07 µg/mL
[2]
  SI (selectivity index), HSF: 1.00
[3]; [8]
  IC50 (HCT119): 2.25 µg/mL
[3]
  SI (selectivity index), HCT119: 4.92
[4]; [9]
  IC50 (HEPG2): 3.42 µg/mL
[4]
  SI (selectivity index), HEPG2: 3.24
[5]
  SI (selectivity index), MDA: 3.45
[5]; [10]
  IC50 (MDA): 3.21 µg/mL

## O=C(Cc1ccccc1)NN=Cc1c([O-])ccc2ccccc12.O=C(Cc1ccccc1)NN=Cc1c([O-])ccc2ccccc12.[Fe+2] [Fe complex]
[1]; [6]
  IC50 (A549): 95.49 µg/mL
[1]
  SI (selectivity index), A549: 0.17
[2]; [7]
  IC50 (HSF): 15.84 µg/mL
[2]
  SI (selectivity index), HSF: 1.00
[3]; [8]
  IC50 (HCT119): 64.01 µg/mL
[3]
  SI (selectivity index), HCT119: 0.25
[4]; [9]
  IC50 (HEPG2): 40.73 µg/mL
[4]
  SI (selectivity index), HEPG2: 0.39
[5]
  SI (selectivity index), MDA: 2.09
[5]; [10]
  IC50 (MDA): 7.58 µg/mL

## O=C(Cc1ccccc1)NN=Cc1c(O)ccc2ccccc12 [H2L, Nʹ-((2-hydroxynaphthalen-1-yl)methylene)-2-phenylacetohydrazide]
[1]; Homo sapiens, A549 lung cancer cells, MTT, 48 h
  IC50: 25.1 µg/mL (≈ 82.5 µM)
[1]
  SI (selectivity index), A549: 3.63
[2]; Homo sapiens, Skin fibroblast, HSF normal skin fibroblasts, MTT, 48 h
  IC50: 91.2 µg/mL (≈ 300 µM)
[2]
  SI (selectivity index), HSF: 1.00
[3]; Homo sapiens, HCT-116, HCT119 colorectal cancer cells (HCT116 in abstract), MTT, 48 h
  IC50: 285 µg/mL (≈ 936 µM)
[3]
  SI (selectivity index), HCT119: 0.32
[4]; Homo sapiens, HEPG2 liver carcinoma cells, MTT, 48 h
  IC50: 31.6 µg/mL (≈ 104 µM)
[4]
  SI (selectivity index), HEPG2: 2.88
[5]; Homo sapiens, MDA triple-negative breast cancer cells, MTT, 48 h
  IC50: 25.1 µg/mL (≈ 82.5 µM)
[5]
  SI (selectivity index), MDA: 3.63

## C1=[N+]2N=C(Cc3ccccc3)[O][Zn-2]23[O+](c2ccc4ccccc4c21)[Zn-2]12[O]C(Cc4ccccc4)=N[N+]1=Cc1c(ccc4ccccc14)[O+]32.CC(=O)O.CC(=O)O (stereo not shown) [Zn complex]
[2]
  SI (selectivity index), HSF: 1.00
[4]; [9]
  IC50 (HEPG2): 32.35 µg/mL
[5]; [10]
  IC50 (MDA): 89.12 µg/mL
